According to US8993612B2, “Modulators of calcium release-activated calcium channel and methods for treatment of non-small cell lung cancer” (Rhizen Pharmaceuticals SA, priority 2009, dated 2015):
Structures can show the parent of a compound that is named as a salt.

Target: CRAC channels (Homo sapiens (Human), UniProt Q96D31)
Experiment: In-vitro CRAC channel inhibition assay in Jurkat cells (thapsigargin-induced calcium influx)
Type: cell-based
Procedure: Inhibition of CRAC channels was determined following thapsigargin (Sigma, Cat # T9033) induced endoplasmic calcium release in Jurkat cells. (see Yasurio Yonetoky et. al Bio. & Med. Chem. 14 (2006) 4750-4760). Cells were centrifuged and resuspended in equal volumes ° f Ca^2+ and Mg^2+ free Hanks buffer and Fluo-8 NW dye (ABD Bioquest, Inc., Sunnyvale, Calif.) loading solution at 2×10^5 cells/100 μl/well in 96-well black plate. Plate is incubated at 37° C./5% CO2 for 30 mM followed by further 15 mM incubation at room temperature. Test compounds (DMSO stocks diluted in Ca^2+ and Mg^2+ free Hanks buffer) at desired concentrations were added to the wells and incubated for […]. Thapsigargin (1 μM final concentration) was added to the wells and incubated for 15 min to inhibit the Sarco-endoplasmic reticulum Ca^2+ ATPase pump thereby depleting endoplasmic calcium and raising cytosolic calcium concentrations. Store-operated calcium entry was initiated by adding extracellular Ca^2+ to a final concentration of 1.8 mM. Fluorescence was monitored over […] on a plate reader (BMG Labtech., Germany) with excitation at 485 nm and an emission wavelength at 520 nm. Data were analyzed using GraphPad Prism. IC50 for each compound was determined based on the percent inhibition of thapsigargin-induced calcium influx into cells.

Sequence of CRAC channels (Q96D31 whole entry): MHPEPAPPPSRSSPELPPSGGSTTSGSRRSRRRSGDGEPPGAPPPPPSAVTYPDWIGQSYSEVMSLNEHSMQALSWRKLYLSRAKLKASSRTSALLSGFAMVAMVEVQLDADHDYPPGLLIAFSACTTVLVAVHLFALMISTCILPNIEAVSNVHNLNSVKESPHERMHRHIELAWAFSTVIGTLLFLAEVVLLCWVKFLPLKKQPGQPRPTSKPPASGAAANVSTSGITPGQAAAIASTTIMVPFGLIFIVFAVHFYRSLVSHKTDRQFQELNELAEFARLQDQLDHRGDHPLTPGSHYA

Row | inhibition at 1 µM (1 uM) | % inhibition (1 uM) | IC50 | Structure (SMILES)
1 | 57.6% | – | – | O=C(Nc1ccc(-n2nc(C3CC3)cc2C2CC2)cc1)c1ccc2nc[nH]c2c1 [Example 1, N-[4-(3,5-dicyclopropyl-1H-pyrazol-1-yl)phenyl]-1H-benzo[d]imidazole-6-carboxamide]
2 | 36.8% | – | – | O=C(Cc1c[nH]c2ccccc12)Nc1ccc(-n2nc(C3CC3)cc2C2CC2)cc1 [Example 7, N-[4-(3,5-dicyclopropyl-1H-pyrazol-1-yl)phenyl]-2-(1H-indol-3-yl)acetamide]
3 | 17.9% | – | – | O=C(Cc1cn2ccccc2n1)Nc1ccc(-n2nc(C3CC3)cc2C2CC2)cc1 [Example 8, N-[4-(3,5-dicyclopropyl-1H-pyrazol-1-yl)phenyl]-2-(imidazo[1,2-a]pyridin-2-yl)acetamide Hydrochloride]
4 | 78.6% | – | – | O=C(Cn1nnc2ccccc21)Nc1ccc(-n2nc(C3CC3)cc2C2CC2)c(F)c1 [Example 11, 2-(1H-benzo[d][1,2,3]triazol-1-yl)-N-(4-(3,5-dicyclopropyl-1H-pyrazol-1-yl)-3-fluorophenyl)acetamide]
5 | 22.4% | – | – | O=C(Nc1ccc(-n2nc(C3CC3)cc2C2CC2)nc1)c1ccc2ncccc2c1 [Example 13, N-[6-(3,5-dicyclopropyl-1H-pyrazol-1-yl)pyridin-3-yl]quinoline-6-carboxamide Dihydrochloride]
6 | 17.8% | – | – | O=C(Nc1ccc(-n2nc(C3CC3)cc2C2CC2)nc1)c1ccc2nccnc2c1 [Example 14, N-[6-(3,5-dicyclopropyl-1H-pyrazol-1-yl)pyridin-3-yl]quinoxaline-6-carboxamide]
7 | 3.93% | – | – | O=C(Cn1nnc2ccccc21)Nc1ccc(-n2nc(C3CC3)cc2C2CC2)nc1 [Example 15, 2-(1H-benzo[d][1,2,3]triazol-1-yl)-N-[6-(3,5-dicyclopropyl-1H-pyrazol-1-yl)pyridin-3-yl]acetamide]
8 | – | 30.81% | – | Cl.Cl.O=C(Cc1ccc2ncccc2c1)Nc1ccc(-n2nc(C3CC3)cc2C2CC2)nc1 [Example 16, N-[6-(3,5-dicyclopropyl-1H-pyrazol-1-yl)pyridin-3-yl]-2-(quinolin-6-yl)acetamidedihydrochloride]
9 | 96.6% | – | 53.4 nM | O=C(Nc1ccc(-n2nc(C(F)(F)F)cc2C2CC2)cc1)c1ccc2nccnc2c1 [Example 18, N-{4-[5-cyclopropyl-3-(trifluoromethyl)-1H-pyrazol-1-yl]phenyl}quinoxaline-6-carboxamide]
10 | 83% | – | 139 nM | O=C(Cn1nc2ccccc2n1)Nc1ccc(-n2nc(C(F)(F)F)cc2C2CC2)cc1 [Example 21, 2-(2H-benzo[d][1,2,3]triazol-2-yl)-N-{4-[5-cyclopropyl-3-(trifluoromethyl)-1H-pyrazol-1-yl]phenyl}acetamide]
11 | 30.9% | – | – | O=C(Cn1nnc2cccnc21)Nc1ccc(-n2nc(C(F)(F)F)cc2C2CC2)cc1 [Example 22, 2-(3H-[1,2,3]triazolo[4,5-b]pyridin-3-yl)-N-{4-[5-cyclopropyl-3-(trifluoromethyl)-1H-pyrazol-1-yl]phenyl}acetamide]
12 | 69.9% | – | – | C[C@@H](C(=O)Nc1ccc(-n2nc(C(F)(F)F)cc2C2CC2)cc1)n1nnc2cccnc21 [Example 23, (S)-2-(3H-[1,2,3]triazolo[4,5-b]pyridin-3-yl)-N-{4-[5-cyclopropyl-3-(trifluoromethyl)-1H-pyrazol-1-yl]phenyl}propanamide]
13 | 39.1% | – | – | Cn1c(=O)c2c(ncn2CC(=O)Nc2ccc(-n3nc(C(F)(F)F)cc3C3CC3)cc2)n(C)c1=O [Example 25, N-(4-(5-cyclopropyl-3-(trifluoromethyl)-1H-pyrazol-1-yl)phenyl)-2-(1,3-dimethyl-2,6-dioxo-2,3-dihydro-1H-purin-7(6H)-yl)acetamide]
14 | 30.9% | – | – | O=C(Cc1cn2ccccc2n1)Nc1ccc(-n2nc(C(F)(F)F)cc2C2CC2)cc1 [Example 26, N-{4-[5-cyclopropyl-3-(trifluoromethyl)-1H-pyrazol-1-yl)phenyl)-2-(imidazo[1,2-a]pyridin-2-yl)acetamide Hydrochloride]
